Experimental data reported in ChEMBL document CHEMBL1201862, “PubChem BioAssay data set” (2004).
Activity calls are given as the source filed them.

system: not listed separately; assay: P. falciparum Dd2 growth inhibitors, dose response, SYBR Green, dry powder samples, set 9 (AID 1159568); type: functional, cell-based; details: not given

Row | Structure (SMILES) | AC50
1 | O=C(Cc1ccccc1)N1CC(=O)N2[C@H](CO)[C@H](c3ccc(C#CCc4ccccc4)cc3)[C@H]2C1 | 354 nM (active)

system: not listed separately; assay: Luminescence Cell-Based Dose Response to Identify Activators of 5'UTR Stem-Loop Driven Prion Protein mRNA Translation in H4-C Neuroglioblastoma Cells. [Related pubchem assays: 1829 (Project Summary), 1814 (Primary HTS)]; type: functional; details: not given

Row | Structure (SMILES) | EC50
2 | O=C1OC(c2ccccc2)=C/C1=C/N1CCCCC1 | 426 nM (active)
3 | COCCn1c(C)cc(C(=O)COC(=O)c2ccc3ncsc3c2)c1C | 1090 nM (active)
4 | CC(=O)c1c(C)[nH]c(C(=O)NCCC2=CCCCC2)c1C | 862 nM (active)
5 | O=C(/N=C1\SCC(=O)N1c1ccccc1Cl)c1ccccc1 | 1860 nM (active)
6 | CC(NC(=O)Nc1ccc2c(c1)OCO2)C1CCCO1 (centres undefined) | > 12000 nM (not active)
7 | Cc1cc(C(=O)CSc2n[nH]c(N)n2)c(C)n1-c1ccccc1 | 1030 nM (active)

system: not listed separately; assay: Luminescence Cell-Based Dose Response HTS to Identify Activators of Luciferase Translation or Activity in H4 […] Cells. [Related pubchem assays: 1829 (Project Summary), 1814 (Primary HTS)]; type: functional; details: not given

Row | Structure (SMILES) | EC50
8 | O=C1OC(c2ccccc2)=C/C1=C/N1CCCCC1 | 129 nM (inconclusive)
9 | COCCn1c(C)cc(C(=O)COC(=O)c2ccc3ncsc3c2)c1C | 155 nM (active)
10 | CC(=O)c1c(C)[nH]c(C(=O)NCCC2=CCCCC2)c1C | < 100 nM (inconclusive)
11 | O=C(/N=C1\SCC(=O)N1c1ccccc1Cl)c1ccccc1 | 11100 nM (active)
12 | CC(NC(=O)Nc1ccc2c(c1)OCO2)C1CCCO1 (centres undefined) | 8120 nM (active)
13 | Cc1cc(C(=O)CSc2n[nH]c(N)n2)c(C)n1-c1ccccc1 | < 100 nM (active)

system: not listed separately; assay: Luminescence Cell-Based Dose Retest to Confirm Inhibitors of Cancer Stem Cells. [Related pubchem assays (depositor defined):AID2717, AID2721]; type: functional; details: Homo sapiens

Row | Structure (SMILES) | AC50
14 | Cc1nn(Cc2ccc(C(=O)Nc3nccs3)cc2)c(C)c1Cl | 747 nM (active)

system: not listed separately; assay: HepG2 cell cytotoxicity, dose response, cytotoxicity control, plate reader, cherry-pick, antagonist series (AID 743416); type: functional, cell-based; details: not given

Row | Structure (SMILES) | AC50
15 | O=C(O)c1cccc(-c2noc(-c3cccc(Cl)c3)n2)c1 | > 52000 nM (inactive)

system: not listed separately; assay: LGR2 antagonists, dose response, cell-based, HEK293, CRE-luciferase reporter, cherry pick, set 2 (AID 743343); type: functional; details: not given;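 also: transfected cells were stimulated with diluted bursicon conditioned medium after compound addition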

Row | Structure (SMILES) | AC50
16 | O=C(O)c1cccc(-c2noc(-c3cccc(Cl)c3)n2)c1 | 5670 nM (active)

system: not listed separately; assay: P. falciparum ATP4 D1247Y mutant growth inhibitors, dose response, NITD609-resistant line, SYBR Green, dry powder (AID 1159571); type: functional, cell-based; details: not given;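 also: parasites synchronized at ring stage by sorbitol before testing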

Row | Structure (SMILES) | AC50
17 | O=C(Nc1cccc(F)c1)N1CCCCN2[C@H](CO)[C@H](c3ccc(C#Cc4ccccc4)cc3)[C@@H]2C1 | 55.7 nM (active)
18 | O=C(Cc1ccccc1)N1CC(=O)N2[C@H](CO)[C@H](c3ccc(C#CCc4ccccc4)cc3)[C@H]2C1 | 1180 nM (active)
19 | CCCC#Cc1ccc2c(c1)[C@H]1[C@H](CCN1Cc1ccccc1F)[C@@H](CO)N2 | 2370 nM (active)

system: not listed separately; assay: HepG2 cell cytotoxicity, dose response, cytotoxicity control, plate reader, dry powder samples (AID 1159569); type: functional, cell-based; details: not given;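 also: inhibitor potency with signal falling toward the positive control level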

Row | Structure (SMILES) | AC50
20 | O=C(Nc1cccc(F)c1)N1CCCCN2[C@H](CO)[C@H](c3ccc(C#Cc4ccccc4)cc3)[C@@H]2C1 | > 100000 nM (inactive)
21 | O=C(Cc1ccccc1)N1CC(=O)N2[C@H](CO)[C@H](c3ccc(C#CCc4ccccc4)cc3)[C@H]2C1 | 22500 nM (active)
22 | CCCC#Cc1ccc2c(c1)[C@H]1[C@H](CCN1Cc1ccccc1F)[C@@H](CO)N2 | 71500 nM (active)

system: not listed separately; assay: Luminescence Cell-Based Dose Confirmation to Identify Activators of 5'UTR Stem-Loop Driven Alpha-Synuclein mRNA Translation in H4 Neuroglioblastoma Cells. [Related pubchem assays: 1829 (Project Summary), 1814 (Primary HTS)]; type: functional; details: not given

Row | Structure (SMILES) | EC50
23 | O=C1OC(c2ccccc2)=C/C1=C/N1CCCCC1 | 306 nM (active)
24 | COCCn1c(C)cc(C(=O)COC(=O)c2ccc3ncsc3c2)c1C | 364 nM (active)
25 | CC(=O)c1c(C)[nH]c(C(=O)NCCC2=CCCCC2)c1C | 468 nM (active)
26 | O=C(/N=C1\SCC(=O)N1c1ccccc1Cl)c1ccccc1 | 717 nM (active)
27 | CC(NC(=O)Nc1ccc2c(c1)OCO2)C1CCCO1 (centres undefined) | > 12000 nM (not active)
28 | Cc1cc(C(=O)CSc2n[nH]c(N)n2)c(C)n1-c1ccccc1 | 6750 nM (active)

system: not listed separately; assay: P. falciparum Dd2 growth inhibitors, dose response, SYBR Green, cherry-picked samples (AID 1159567); type: functional, cell-based; details: not given

Row | Structure (SMILES) | AC50
29 | O=C(Nc1cccc(F)c1)N1CCCCN2[C@H](CO)[C@H](c3ccc(C#Cc4ccccc4)cc3)[C@@H]2C1 | < 300 nM (active)
30 | O=C(Cc1ccccc1)N1CC(=O)N2[C@H](CO)[C@H](c3ccc(C#CCc4ccccc4)cc3)[C@H]2C1 | 918 nM (active)
31 | CCCC#Cc1ccc2c(c1)[C@H]1[C@H](CCN1Cc1ccccc1F)[C@@H](CO)N2 | 2780 nM (active)

system: not listed separately; assay: Luminescence Cell-Based Dose Response to Identify Activators of Luciferase Translation or Activity in H4-C Neuroglioblastoma Cells. [Related pubchem assays: 1829 (Project Summary), 1814 (Primary HTS)]; type: functional; details: not given

Row | Structure (SMILES) | EC50
32 | O=C1OC(c2ccccc2)=C/C1=C/N1CCCCC1 | 352 nM (active)
33 | COCCn1c(C)cc(C(=O)COC(=O)c2ccc3ncsc3c2)c1C | 343 nM (active)
34 | CC(=O)c1c(C)[nH]c(C(=O)NCCC2=CCCCC2)c1C | > 12000 nM (not active)
35 | O=C(/N=C1\SCC(=O)N1c1ccccc1Cl)c1ccccc1 | > 12000 nM (not active)
36 | CC(NC(=O)Nc1ccc2c(c1)OCO2)C1CCCO1 (centres undefined) | > 12000 nM (not active)
37 | Cc1cc(C(=O)CSc2n[nH]c(N)n2)c(C)n1-c1ccccc1 | 687 nM (active)

system: not listed separately; assay: MC4R antagonists, dose response, counter-screen for LGR2 antagonist project, cell-based, plate reader, cherry pick (AID 743444); type: functional; details: not given;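 also: transfected HEK 293 cells stimulated with alpha-MSH peptide; potency of inhibitors of the alpha-MSH evoked signal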

Row | Structure (SMILES) | AC50
38 | O=C(O)c1cccc(-c2noc(-c3cccc(Cl)c3)n2)c1 | 7560 nM (active)

system: not listed separately; assay: P. falciparum Dd2 growth inhibitors, dose response, SYBR Green, dry powder samples (AID 1159566); type: functional, cell-based; details: not given;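 also: potency for growth inhibition with lower SYBR green DNA signal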

Row | Structure (SMILES) | AC50
39 | O=C(Nc1cccc(F)c1)N1CCCCN2[C@H](CO)[C@H](c3ccc(C#Cc4ccccc4)cc3)[C@@H]2C1 | 43.7 nM (active)
40 | O=C(Cc1ccccc1)N1CC(=O)N2[C@H](CO)[C@H](c3ccc(C#CCc4ccccc4)cc3)[C@H]2C1 | 358 nM (active)
41 | CCCC#Cc1ccc2c(c1)[C@H]1[C@H](CCN1Cc1ccccc1F)[C@@H](CO)N2 | 2390 nM (active)

system: not listed separately; assay: P. falciparum 3D7-ScDHODH growth inhibitors, dose response, SYBR Green, dry powder samples (AID 1159570); type: functional, cell-based; details: not given;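 also: parasite growth measured after 72 hours of compound exposure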

Row | Structure (SMILES) | AC50
42 | O=C(Nc1cccc(F)c1)N1CCCCN2[C@H](CO)[C@H](c3ccc(C#Cc4ccccc4)cc3)[C@@H]2C1 | 38.3 nM (active)
43 | O=C(Cc1ccccc1)N1CC(=O)N2[C@H](CO)[C@H](c3ccc(C#CCc4ccccc4)cc3)[C@H]2C1 | 1730 nM (active)
44 | CCCC#Cc1ccc2c(c1)[C@H]1[C@H](CCN1Cc1ccccc1F)[C@@H](CO)N2 | 5850 nM (active)

system: not listed separately; assay: Luminescence Cell-Based Dose Confirmation HTS to Identify Activators of 5'UTR Stem-Loop Driven Alpha-Synuclein mRNA Translation in H4 Neuroglioblastoma Cells. [Related pubchem assays: 1829 (Project Summary), 1814 (Primary HTS)]; type: functional; details: not given

Row | Structure (SMILES) | EC50
45 | O=C1OC(c2ccccc2)=C/C1=C/N1CCCCC1 | < 100 nM (active)
46 | O=C(/N=C1\SCC(=O)N1c1ccccc1Cl)c1ccccc1 | < 100 nM (active)
47 | CC(NC(=O)Nc1ccc2c(c1)OCO2)C1CCCO1 (centres undefined) | < 100 nM (active)

system: H4; assay: Luminescence Cell-Based Dose Response HTS to Identify Activators of 5'UTR Stem-Loop Driven Prion Protein mRNA Translation in H4 Neuroglioblastoma Cells. [Related pubchem assays: 1829 (Project Summary), 1814 (Primary HTS)]; type: functional; details: Homo sapiens

Row | Structure (SMILES) | EC50
48 | O=C1OC(c2ccccc2)=C/C1=C/N1CCCCC1 | 142 nM (active)
49 | COCCn1c(C)cc(C(=O)COC(=O)c2ccc3ncsc3c2)c1C | 132 nM (active)
50 | CC(=O)c1c(C)[nH]c(C(=O)NCCC2=CCCCC2)c1C | 12300 nM (active)
51 | O=C(/N=C1\SCC(=O)N1c1ccccc1Cl)c1ccccc1 | 50500 nM (active)
52 | CC(NC(=O)Nc1ccc2c(c1)OCO2)C1CCCO1 (centres undefined) | 33000 nM (active)
53 | Cc1cc(C(=O)CSc2n[nH]c(N)n2)c(C)n1-c1ccccc1 | 5580 nM (active)

molecular target: Prothrombin (Homo sapiens, UniProt P00734); assay: Thrombin 1536 HTS Dose Response Confirmation. [Related pubchem assays: 1046 (Thrombin 1536 HTS; hits were confirmed in this assay)]; type: functional; details: not given

Row | Structure (SMILES) | IC50
54 | Cc1nn(Cc2ccc(C(=O)Nc3nccs3)cc2)c(C)c1Cl | > 50000 nM (not active)
